# According to ChEMBL document CHEMBL1201862, “PubChem BioAssay data set” (2004):
# Counter-ions that a name gives are not always drawn. Calls of active or inactive are those of the source.
# Columns and labels:
# [1] = HPDE-C7 pancreatic duct cell viability loss – fluorescence, HTS (AID 430); format: functional, cell-based; settings: Homo sapiens
# Hexokinase HKDC1 = target: T1, Hexokinase HKDC1 (Homo sapiens, UniProt Q2TB90); assay: inhibition of HKDC1 glucose phosphorylation – biochemical, W721R variant, dose response (AID 504729); format: functional
# T1 sequence (Q2TB90 whole entry): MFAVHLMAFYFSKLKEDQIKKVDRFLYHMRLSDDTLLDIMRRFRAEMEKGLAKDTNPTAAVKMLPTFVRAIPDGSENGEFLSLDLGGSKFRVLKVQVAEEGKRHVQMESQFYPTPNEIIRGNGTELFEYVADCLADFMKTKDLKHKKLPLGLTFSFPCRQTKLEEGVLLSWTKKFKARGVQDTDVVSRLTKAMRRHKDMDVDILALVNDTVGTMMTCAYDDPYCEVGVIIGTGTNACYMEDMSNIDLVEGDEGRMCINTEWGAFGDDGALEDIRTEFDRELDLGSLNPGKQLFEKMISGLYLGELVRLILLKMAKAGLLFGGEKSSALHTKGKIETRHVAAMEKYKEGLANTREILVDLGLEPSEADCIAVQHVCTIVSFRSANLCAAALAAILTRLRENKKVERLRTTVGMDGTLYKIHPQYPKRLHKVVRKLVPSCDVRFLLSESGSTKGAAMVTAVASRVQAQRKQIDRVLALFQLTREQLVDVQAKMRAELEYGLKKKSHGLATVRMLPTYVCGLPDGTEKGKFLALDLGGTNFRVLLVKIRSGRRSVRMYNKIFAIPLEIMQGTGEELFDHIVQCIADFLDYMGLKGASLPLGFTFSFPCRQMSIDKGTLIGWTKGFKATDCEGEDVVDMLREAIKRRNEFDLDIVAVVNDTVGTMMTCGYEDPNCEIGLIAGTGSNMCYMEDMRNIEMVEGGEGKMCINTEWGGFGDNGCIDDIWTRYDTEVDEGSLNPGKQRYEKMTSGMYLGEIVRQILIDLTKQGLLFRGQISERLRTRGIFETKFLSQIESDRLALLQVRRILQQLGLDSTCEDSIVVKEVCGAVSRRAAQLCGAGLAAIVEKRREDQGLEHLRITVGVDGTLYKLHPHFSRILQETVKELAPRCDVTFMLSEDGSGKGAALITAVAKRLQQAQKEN
# cells [2] = format: functional, cell-based
# [3] = HEK-293T cell viability reduction – luminescence, B-cell screen hits, cytotoxicity control for BCR NF-kB inhibitor project, dose response (AID 489021); format: functional, cell-based;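 note: HEK-293T cells carrying an NF-kB luciferase reporter; cells exposed to compound for about 14 hours before viability readout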
# [4] = viability loss of HPDE-C7K cells – cell-based, fluorescence, HTS, primary screen (AID 431); format: functional; settings: Homo sapiens
# cells [5] = format: functional, cell-based; remark: listed apart in the source
# Fatty acid synthase [6] = target: T2, Fatty acid synthase (Homo sapiens, UniProt P49327); assay: inhibition of human FAS-TE enzyme activity – biochemical, kinetic fluorescence intensity, dose response (AID 624326); format: functional;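 note: rate of fluorescence rise from hydrolysis of a fluorogenic O-methyl fluorescein ester substrate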
# T2 sequence (P49327 whole entry): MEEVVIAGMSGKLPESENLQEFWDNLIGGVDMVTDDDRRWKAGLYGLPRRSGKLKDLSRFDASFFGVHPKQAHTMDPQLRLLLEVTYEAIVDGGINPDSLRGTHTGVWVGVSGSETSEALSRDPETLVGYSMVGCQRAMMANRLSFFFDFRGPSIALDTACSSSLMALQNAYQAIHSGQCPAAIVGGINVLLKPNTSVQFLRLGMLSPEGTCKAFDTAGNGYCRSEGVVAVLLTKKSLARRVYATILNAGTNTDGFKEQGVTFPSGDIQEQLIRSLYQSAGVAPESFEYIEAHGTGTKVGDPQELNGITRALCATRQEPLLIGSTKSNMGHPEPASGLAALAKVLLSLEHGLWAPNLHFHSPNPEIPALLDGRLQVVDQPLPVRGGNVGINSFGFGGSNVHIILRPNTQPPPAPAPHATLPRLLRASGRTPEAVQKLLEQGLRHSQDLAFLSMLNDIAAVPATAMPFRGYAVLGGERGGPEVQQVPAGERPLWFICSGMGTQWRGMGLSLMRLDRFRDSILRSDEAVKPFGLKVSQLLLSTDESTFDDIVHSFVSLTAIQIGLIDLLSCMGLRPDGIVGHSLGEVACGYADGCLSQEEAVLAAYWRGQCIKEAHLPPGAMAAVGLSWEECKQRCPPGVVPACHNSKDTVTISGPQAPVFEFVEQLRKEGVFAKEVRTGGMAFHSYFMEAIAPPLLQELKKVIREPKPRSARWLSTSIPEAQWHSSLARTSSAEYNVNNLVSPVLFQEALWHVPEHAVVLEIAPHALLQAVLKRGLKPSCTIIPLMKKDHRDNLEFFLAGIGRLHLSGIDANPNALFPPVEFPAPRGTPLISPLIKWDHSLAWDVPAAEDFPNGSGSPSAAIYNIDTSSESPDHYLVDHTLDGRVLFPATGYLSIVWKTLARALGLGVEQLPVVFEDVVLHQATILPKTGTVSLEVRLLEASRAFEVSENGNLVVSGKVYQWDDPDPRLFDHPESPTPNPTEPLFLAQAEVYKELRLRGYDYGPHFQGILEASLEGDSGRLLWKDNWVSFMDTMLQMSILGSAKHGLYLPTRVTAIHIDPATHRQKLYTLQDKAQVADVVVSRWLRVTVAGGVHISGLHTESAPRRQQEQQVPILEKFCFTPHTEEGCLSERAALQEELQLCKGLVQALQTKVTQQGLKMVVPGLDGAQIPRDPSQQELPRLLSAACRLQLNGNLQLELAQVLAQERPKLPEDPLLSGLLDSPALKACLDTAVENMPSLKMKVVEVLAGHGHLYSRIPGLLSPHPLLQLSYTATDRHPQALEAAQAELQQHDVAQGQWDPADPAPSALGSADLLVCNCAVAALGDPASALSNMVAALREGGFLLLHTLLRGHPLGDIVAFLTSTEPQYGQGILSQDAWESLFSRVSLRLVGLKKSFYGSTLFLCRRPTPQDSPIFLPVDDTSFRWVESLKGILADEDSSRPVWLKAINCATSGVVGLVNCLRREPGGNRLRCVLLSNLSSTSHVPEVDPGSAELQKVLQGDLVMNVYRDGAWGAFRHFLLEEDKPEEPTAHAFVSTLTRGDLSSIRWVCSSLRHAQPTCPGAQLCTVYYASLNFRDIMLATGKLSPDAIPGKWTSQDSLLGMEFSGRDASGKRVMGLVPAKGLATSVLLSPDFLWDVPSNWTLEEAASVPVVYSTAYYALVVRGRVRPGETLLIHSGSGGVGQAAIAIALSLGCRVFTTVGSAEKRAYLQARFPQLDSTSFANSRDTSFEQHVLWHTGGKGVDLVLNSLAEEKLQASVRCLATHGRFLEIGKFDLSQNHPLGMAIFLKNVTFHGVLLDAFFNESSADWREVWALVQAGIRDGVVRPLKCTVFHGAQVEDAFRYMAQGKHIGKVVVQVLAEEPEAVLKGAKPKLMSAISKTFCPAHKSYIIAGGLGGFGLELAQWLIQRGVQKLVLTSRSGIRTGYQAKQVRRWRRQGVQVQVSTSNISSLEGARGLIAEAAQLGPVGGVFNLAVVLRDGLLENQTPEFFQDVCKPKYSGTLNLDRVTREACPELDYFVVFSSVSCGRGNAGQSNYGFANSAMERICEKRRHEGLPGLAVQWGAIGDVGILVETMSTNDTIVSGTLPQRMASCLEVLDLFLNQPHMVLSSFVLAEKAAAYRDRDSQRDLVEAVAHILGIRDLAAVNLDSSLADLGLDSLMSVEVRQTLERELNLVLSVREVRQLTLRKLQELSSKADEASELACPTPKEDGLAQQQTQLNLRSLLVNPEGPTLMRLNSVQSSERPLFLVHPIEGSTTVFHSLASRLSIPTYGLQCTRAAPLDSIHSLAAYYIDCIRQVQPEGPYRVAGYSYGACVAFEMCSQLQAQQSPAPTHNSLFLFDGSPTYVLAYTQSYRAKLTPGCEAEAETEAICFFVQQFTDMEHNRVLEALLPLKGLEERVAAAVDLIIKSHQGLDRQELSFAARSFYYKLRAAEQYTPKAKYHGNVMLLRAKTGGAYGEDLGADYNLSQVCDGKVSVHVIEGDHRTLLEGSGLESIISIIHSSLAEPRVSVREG
# Fatty acid synthase [7] = target: T2, Fatty acid synthase; assay: inhibition of human FAS-TE enzyme activity – biochemical, endpoint fluorescence intensity, uHTS hits, dose response (AID 624327); format: functional;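 note: fluorescence from hydrolysis of an O-methyl fluorescein acyl ester substrate by the enzyme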
# X-box-binding protein 1 = X-box-binding protein 1 (Homo sapiens, UniProt P17861); format: functional, Cricetulus griseus;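 note: confirmatory dose-response counter-screen serving a CHOP assay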
# Wee1-like protein kinase = Wee1-like protein kinase (Homo sapiens, UniProt P30291); assay: HeLa cell cycle G2/M accumulation – FACS, mechanism study for Wee1 degradation inhibitor project, late-stage follow-up, panel member Wee1 Degradation (AID 2088)
# [8] = target: G2/mitotic-specific cyclin-B1 (Homo sapiens, UniProt P14635); assay: HeLa cell cycle G2/M accumulation – FACS, mechanism study for Wee1 degradation inhibitor project, late-stage follow-up, panel member Cyclin B Degradation (AID 2088)
# [9] = target: T3, Small ubiquitin-related modifier 1 (Homo sapiens, UniProt P63165); assay: SUMO1 protein interaction blockers, potency – biochemical, fluorescence polarization, uHTS hits, dose response (AID 624382); format: functional; settings: read-out: IC50_Mean
# T3 sequence (P63165 whole entry): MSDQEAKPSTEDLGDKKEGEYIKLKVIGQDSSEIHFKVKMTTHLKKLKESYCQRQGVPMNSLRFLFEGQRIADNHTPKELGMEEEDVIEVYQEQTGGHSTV
# Vero = assay: cells; format: functional, cell-based; settings: Chlorocebus sabaeus
# [10] = Cytotoxicity screening for potential Inhibitors of Bacterial Capsule Biogenesis. [Related pubchem assays (depositor defined):AID488970]; format: functional
# [11] = target: 72 kDa type IV collagenase (Homo sapiens, UniProt P08253); assay: Dose Response validation of uHTS RPN11 inhibitor hits using a MMP-2 Fluorescence assay.; format: functional
# Prothrombin = Prothrombin (Bos taurus, UniProt P00735); assay: thrombin protease inhibitors – biochemical, fluorescence polarization, uHTS hits, dose response (AID 602369); format: functional
# [12] = target: T3, Small ubiquitin-related modifier 1; assay: SUMO1 protein-protein binding blockers, potency – biochemical, FRET, dose response (AID 624383); format: functional; settings: read-out: IC50_Mean
# [13] = target: 26S proteasome non-ATPase regulatory subunit 14 (Homo sapiens, UniProt O00487); assay: inhibition of proteasome subunit RPN11 – biochemical, fluorescence polarization, uHTS hits, confirmation (AID 602368); format: functional
# [14] = target: T4, Voltage-dependent T-type calcium channel subunit alpha-1H (Homo sapiens, UniProt O95180); assay: Inhibitors of T-Type Calcium Channels. [Related pubchem assays (depositor defined):AID449739, AID463087, AID489005, AID493041, AID504579, AID504584, AID504619, AID504628]; format: functional
# T4 sequence (O95180 whole entry): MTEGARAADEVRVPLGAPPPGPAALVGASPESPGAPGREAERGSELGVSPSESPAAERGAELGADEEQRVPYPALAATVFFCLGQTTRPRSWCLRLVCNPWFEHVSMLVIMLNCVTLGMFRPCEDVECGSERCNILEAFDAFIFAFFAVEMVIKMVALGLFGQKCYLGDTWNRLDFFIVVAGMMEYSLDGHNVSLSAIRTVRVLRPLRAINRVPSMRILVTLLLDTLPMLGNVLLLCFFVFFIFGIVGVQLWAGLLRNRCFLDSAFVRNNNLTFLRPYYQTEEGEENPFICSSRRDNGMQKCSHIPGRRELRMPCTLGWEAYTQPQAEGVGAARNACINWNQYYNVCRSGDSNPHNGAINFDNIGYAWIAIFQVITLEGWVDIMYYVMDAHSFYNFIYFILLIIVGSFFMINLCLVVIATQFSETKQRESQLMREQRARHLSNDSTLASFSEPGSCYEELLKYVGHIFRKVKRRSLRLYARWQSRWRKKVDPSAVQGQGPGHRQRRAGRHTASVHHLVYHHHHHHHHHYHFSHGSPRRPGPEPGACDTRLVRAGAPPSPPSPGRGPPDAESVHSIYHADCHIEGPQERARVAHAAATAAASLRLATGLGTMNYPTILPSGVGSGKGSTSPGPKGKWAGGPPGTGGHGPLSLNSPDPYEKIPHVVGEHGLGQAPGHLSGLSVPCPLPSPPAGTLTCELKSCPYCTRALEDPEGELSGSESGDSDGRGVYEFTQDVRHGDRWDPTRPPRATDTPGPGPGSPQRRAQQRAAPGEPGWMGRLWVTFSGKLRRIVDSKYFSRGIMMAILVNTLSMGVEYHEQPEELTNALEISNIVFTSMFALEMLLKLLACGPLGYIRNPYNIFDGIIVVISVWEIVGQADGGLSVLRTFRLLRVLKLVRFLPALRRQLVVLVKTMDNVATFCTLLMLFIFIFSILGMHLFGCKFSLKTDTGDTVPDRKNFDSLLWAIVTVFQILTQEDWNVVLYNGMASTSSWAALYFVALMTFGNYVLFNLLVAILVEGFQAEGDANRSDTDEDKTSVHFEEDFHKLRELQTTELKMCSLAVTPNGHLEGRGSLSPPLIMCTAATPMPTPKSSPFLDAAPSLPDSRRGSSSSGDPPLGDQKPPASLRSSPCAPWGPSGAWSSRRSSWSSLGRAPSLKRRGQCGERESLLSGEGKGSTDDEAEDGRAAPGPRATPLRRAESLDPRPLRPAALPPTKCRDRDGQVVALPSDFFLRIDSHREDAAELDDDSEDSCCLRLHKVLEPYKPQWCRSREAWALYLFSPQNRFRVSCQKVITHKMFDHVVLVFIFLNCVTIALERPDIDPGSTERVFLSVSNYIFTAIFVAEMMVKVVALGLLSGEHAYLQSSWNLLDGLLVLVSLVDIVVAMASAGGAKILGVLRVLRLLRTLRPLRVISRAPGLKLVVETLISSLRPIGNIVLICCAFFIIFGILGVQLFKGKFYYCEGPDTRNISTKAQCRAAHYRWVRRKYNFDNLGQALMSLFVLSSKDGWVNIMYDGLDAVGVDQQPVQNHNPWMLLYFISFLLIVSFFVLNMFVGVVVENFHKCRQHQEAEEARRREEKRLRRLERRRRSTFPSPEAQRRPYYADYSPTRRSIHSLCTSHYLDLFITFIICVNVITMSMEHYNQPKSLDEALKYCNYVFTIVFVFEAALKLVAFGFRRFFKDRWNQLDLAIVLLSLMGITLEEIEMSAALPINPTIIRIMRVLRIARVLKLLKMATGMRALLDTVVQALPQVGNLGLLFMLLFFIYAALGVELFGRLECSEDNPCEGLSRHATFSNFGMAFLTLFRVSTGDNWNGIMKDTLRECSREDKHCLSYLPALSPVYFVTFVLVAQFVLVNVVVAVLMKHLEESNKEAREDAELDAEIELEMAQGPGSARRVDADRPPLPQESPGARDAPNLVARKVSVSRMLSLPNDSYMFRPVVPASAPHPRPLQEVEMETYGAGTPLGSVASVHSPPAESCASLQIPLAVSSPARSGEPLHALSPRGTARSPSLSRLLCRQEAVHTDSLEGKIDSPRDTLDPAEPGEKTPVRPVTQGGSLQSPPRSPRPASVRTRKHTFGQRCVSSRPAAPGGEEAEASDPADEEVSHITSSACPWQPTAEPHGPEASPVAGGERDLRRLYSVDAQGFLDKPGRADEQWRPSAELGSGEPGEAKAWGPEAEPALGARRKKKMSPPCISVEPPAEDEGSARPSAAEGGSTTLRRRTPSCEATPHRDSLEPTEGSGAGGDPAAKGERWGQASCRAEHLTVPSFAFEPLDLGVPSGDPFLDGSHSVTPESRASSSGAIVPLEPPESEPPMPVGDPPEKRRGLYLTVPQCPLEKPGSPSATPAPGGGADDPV
# [15] = target: T5, Endoribonuclease toxin MazF (Escherichia coli K-12, UniProt P0AE70); assay: substrate-only fluorescence increase artefacts – biochemical, single-stranded RNase substrate, counter-screen for MazEF activator project, dose response (AID 588502); format: functional
# T5 sequence (P0AE70 whole entry): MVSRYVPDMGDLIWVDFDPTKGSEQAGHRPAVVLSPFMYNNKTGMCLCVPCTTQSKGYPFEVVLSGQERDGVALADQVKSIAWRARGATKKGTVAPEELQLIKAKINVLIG
# [16] = target: T4, Voltage-dependent T-type calcium channel subunit alpha-1H; format: functional
# [17] = target: T5, Endoribonuclease toxin MazF; assay: activation of MazEF endoribonuclease cleavage – biochemical, fluorescence, single-stranded RNA substrate, uHTS hits, dose response (AID 588481); format: functional
# Cytochrome P450 1A2 = target: T6, Cytochrome P450 1A2 (Homo sapiens, UniProt P05177);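 note: PubChem cytochrome P450 panel assay, CYP1A2 panel member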
# T6 sequence (P05177 whole entry): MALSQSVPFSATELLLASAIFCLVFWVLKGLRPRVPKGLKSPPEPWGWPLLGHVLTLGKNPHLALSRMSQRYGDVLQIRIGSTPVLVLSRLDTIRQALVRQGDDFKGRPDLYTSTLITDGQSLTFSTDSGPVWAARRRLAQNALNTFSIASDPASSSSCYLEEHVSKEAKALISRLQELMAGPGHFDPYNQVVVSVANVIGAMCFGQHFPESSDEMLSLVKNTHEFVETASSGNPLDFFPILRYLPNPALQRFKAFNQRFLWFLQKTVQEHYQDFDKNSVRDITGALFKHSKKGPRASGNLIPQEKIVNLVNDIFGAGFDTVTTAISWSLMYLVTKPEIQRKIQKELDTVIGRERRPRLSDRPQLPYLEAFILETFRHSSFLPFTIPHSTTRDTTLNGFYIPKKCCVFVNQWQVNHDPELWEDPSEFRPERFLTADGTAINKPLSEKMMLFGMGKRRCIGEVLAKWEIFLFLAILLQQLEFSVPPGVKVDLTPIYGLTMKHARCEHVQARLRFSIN
# [18] = target: Cyclin-dependent kinase 5/CDK5 activator 1 (Homo sapiens, UniProt Q00535); assay: blockade of human CDK5 activity – biochemical, cherry-picked samples, set 2, dose response (AID 504545)
# Cytochrome P450 3A4 = Cytochrome P450 3A4 (Homo sapiens, UniProt P08684); settings: Potency;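 note: confirmatory qHTS run detecting inhibitors and substrates of CYP3A4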
# Large T antigen = Large T antigen (Simian virus 40, UniProt P03070); format: functional, Betapolyomavirus macacae;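 note: Confirmatory-stage PubChem screen for compounds that inhibit SV40 T antigen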
# [19] = target: T7, Long-chain-fatty-acid--AMP ligase FadD28 (Mycobacterium tuberculosis, UniProt P9WQ59); assay: Fluorescence polarization aasay to screen for inhibitors that compete for the binding of FadD28 to a bisubstrate Measured in Biochemical System Using Plate Reader - 2147-01_Inhibitor_Dose_CherryPick_Activity.; format: functional, Mycobacterium tuberculosis H37Rv
# T7 sequence (P9WQ59 whole entry): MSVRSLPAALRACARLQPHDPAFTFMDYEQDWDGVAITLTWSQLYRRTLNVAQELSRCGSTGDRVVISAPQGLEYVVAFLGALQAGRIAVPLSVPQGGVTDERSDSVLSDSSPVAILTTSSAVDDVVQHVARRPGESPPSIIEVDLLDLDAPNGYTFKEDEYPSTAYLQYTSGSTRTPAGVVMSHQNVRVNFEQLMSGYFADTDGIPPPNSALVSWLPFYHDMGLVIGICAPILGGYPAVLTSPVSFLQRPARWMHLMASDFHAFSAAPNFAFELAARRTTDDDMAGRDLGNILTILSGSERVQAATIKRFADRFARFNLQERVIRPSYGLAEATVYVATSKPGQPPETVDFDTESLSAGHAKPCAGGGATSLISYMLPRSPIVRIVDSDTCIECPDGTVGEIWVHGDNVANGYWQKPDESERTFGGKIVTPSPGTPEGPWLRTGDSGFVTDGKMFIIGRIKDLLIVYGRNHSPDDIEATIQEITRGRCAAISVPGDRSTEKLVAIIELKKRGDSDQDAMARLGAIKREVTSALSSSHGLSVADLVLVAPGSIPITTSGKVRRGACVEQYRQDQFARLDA
# [20] = target: Dual specificity tyrosine-phosphorylation-regulated kinase 1A (Rattus norvegicus, UniProt Q63470); format: biochemical, Homo sapiens
# [21] = target: Dual specificity protein phosphatase 3 (Homo sapiens, UniProt P51452); assay: inhibition constants for human DUSP3 – biochemical, colorimetric, SAR follow-up (AID 2004)
# [22] = target: NACHT, LRR and PYD domains-containing protein 3 (Homo sapiens, UniProt Q96P20); assay: NALP3 inhibitors in yeast, dose response, luminescent (AID 488799); format: functional
# Bcl-2-like protein 10 = Bcl-2-like protein 10 (Homo sapiens, UniProt Q9HD36); assay: Bcl-B/TR3 peptide binding disruption – biochemical, fluorescence polarization, FITC-TR3 peptide, selectivity assay for Bfl-1 inhibitor project, primary screen (AID 748);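 note: fluorescence polarization from a fluorescein-labelled TR3 peptide binding purified Bcl-B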
# Protein Rev = Protein Rev (Human immunodeficiency virus type 1 group M subtype B (isolate HXB2)(HIV-1), UniProt P04618); assay: blockers of HIV Rev/RRE RNA complex – biochemical, fluorescence polarization, HIV-1, dose response (AID 434976); parameters: species or system Human immunodeficiency virus 1
# Protein Rev, sequence (P04618 whole entry): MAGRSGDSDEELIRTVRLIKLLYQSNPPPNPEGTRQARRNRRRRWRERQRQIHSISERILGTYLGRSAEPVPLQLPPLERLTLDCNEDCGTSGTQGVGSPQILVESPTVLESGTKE
# [23] = target: Female germline-specific tumor suppressor gld-1 (Caenorhabditis elegans, UniProt Q17339); assay: blockers of GLD-1/TGE RNA complex formation – biochemical, fluorescence polarization, C. elegans, dose response (AID 2802);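 note: fluorescence polarization of labeled TGE RNA bound by purified gld-1 protein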
structure (smiles),measurement,setting,value
Cc1ccc(C)c(-n2nnnc2Sc2nnnn2-c2ccccc2)c1,EC50,[1],8.15 µM (active)
same,IC50,Hexokinase HKDC1,22.6 µM (inactive)
same,EC50,cells [2],> 350 µM (not active)
same,IC50,[3],> 80 µM (inactive)
same,EC50,[4],9.95 µM (active)
same,EC50,cells [5],> 350 µM (not active)
CCCCCC1CC(CC(=O)Nc2ccc([N+](=O)[O-])cc2)C(=O)O1 (stereo not drawn),IC50,Fatty acid synthase [6],12.5 µM (active)
same,IC50,Fatty acid synthase [7],16.8 µM (active)
same,Absolute IC50 (XBP1),X-box-binding protein 1,< 10 µM
COc1ccc(NC(=O)CCCOc2cc(=O)n(C)c3ccccc23)cc1Cl,EC50,Wee1-like protein kinase,> 49.7 µM (inactive)
same,EC50,[8],> 49.7 µM (inactive)
Cc1ccccc1NC(=NCCCN1CC1)Nc1ccccc1C,IC50,[9],> 66.6 µM (inactive)
same,IC50,Vero,20.3 µM (active)
same,CC50,[10],7.68 µM (active)
same,IC50,[11],> 100 µM (inactive)
same,IC50,Prothrombin,30 µM (active)
same,IC50,[12],2.8 µM (active)
same,IC50,[13],12.5 µM (active)
CCN(CC)c1ccc2cc(-c3nnc(-c4ccccc4)o3)c(=O)oc2c1,EC50,[14],3.19 µM (active)
same,EC50,[15],> 99 µM (inactive)
same,EC50,[16],0.931 µM (active)
same,EC50,[17],> 99 µM (inactive)
O=C1NC(=O)C(c2ccccc2[N+](=O)[O-])=C1Nc1ccc(O)c(Cl)c1,AC50,Cytochrome P450 1A2,31.6 µM (inconclusive)
same,AC50,[18],5.56 µM (active)
same,AC50,Cytochrome P450 3A4,12.6 µM (inconclusive)
same,IC50,Large T antigen,55.4 µM (active)
same,AC50,[19],89.1 µM (active)
same,AC50,[20],3.11 µM (active)
Cc1cc2c(nc3s/c(=C/c4ccccc4)c(=O)n32)c(Br)c1C,Ki,[21],28.5 µM (inactive)
CC(N)C(=O)OC(C)(C)Cc1ccc(Cl)cc1 (stereo not drawn) [ALAPROCLATE HYDROCHLORIDE],IC50,[22],8.02 µM (active)
Cc1ccc2cccc(S(=O)(=O)Nc3ccc4c(c3)OCO4)c2n1,IC50,Bcl-2-like protein 10,> 100 µM (inactive)
CC(OC(=O)/C(C#N)=C/c1ccc(N(C)C)cc1)C(=O)NCc1ccco1 (stereo not drawn),IC50,Protein Rev,> 75.5 µM (not active)
same,IC50,[23],6.63 µM (active)
